Like-named read-outs stand apart in the source and are kept apart here.
Columns and labels:
hepatocytes [1] = tested on: hepatocytes
Protocol: As described further below, in certain embodiments, the number of bright and/or punctate regions in the lysosomal marker image is used as an indication of phospholipidosis.
An exemplary procedure for preparing hepatocyte cultures will now be described. Specifically, the procedure involves the use of primary rat hepatocytes as follows:
11. Twenty three thousand cells/well are plated in a 96 flat well plate pre-coated with collagen I (BD Biosciences, San Jose, Calif. or CellzDirect, Tucson, Ariz.). The plates are incubated at 37° C./5% CO2 for two hours. At the end of the two hour incubation, plating medium is aspirated and cold Hepatozyme medium containing 250 micrograms/ml of Matrigel (BD Biosciences) is added, and the plates are incubated overnight.
The following example is a procedure for fixing and staining primary rat hepatocytes to visualize nuclei, lysotracker, and Alexa 647 nm succinimidyl ester reagent (A647SE). A647SE is used to segment individual hepatocytes within an image. • 1) At 24 hr after compound addition to cells, 50 ul of Hepatozyme medium (prewarmed to 37° C.) containing 187.5 nM of lysotracker dye is added to each well. Plates are placed back to incubator for 30 min, then 150 μl of fix solution (8% paraformaldehyde, in 1× PBS) and incubate at room temperature for 30 min. • 2) Aspirate the fix solution, and add 350 μl of wash buffer (1× PBS, 0.02% Triton X-100) to each well. Aspirate and dispense wash buffer 2 times. • 3) Aspirate off the wash buffer, and add 100 ul per well of A647SE mix: 0.5 μg/ml A647SE (stock 10 mg/ml) and 1:1000 dilution of Hoechst 33342 (stock 5 mg/ml) in wash buffer. Incubate at room temperature for one hour in the dark. • 4) Aspirate the staining solution, and add 350 μl of wash buffer (1× PBS, […]) to each well. Aspirate and dispense wash buffer 2 times. Leave the last wash buffer in the well. • 5) Seal the plate and store at room temperature in the dark prior to imaging.
In certain embodiments, a stimulus response curve may be generated for a stimulus of interest. In certain embodiments, the stimulus response curve plots the feature or features used to characterize phospholipidosis (e.g., granularity or mean intensity) against concentrations of a stimulus.

hepatocytes [2] = test: Cell death of hepatocytes treated with compound; type: cell-based; conditions: Rattus norvegicus, Hepatocyte, arrow in FIG. 5A

Row | SMILES | proportion of bright/punctate cells (LysoTracker images) (hepatocytes [1]; at several concentrations below EC50 of cell death, FIG. 2B, versus DMSO control) | induction of phospholipidosis as concluded from the response curves (hepatocytes [1]) | mean intensity of the LysoTracker marker (per-cell basis) versus concentration (hepatocytes [1]) | proportion of bright/punctate cells (LysoTracker images) (hepatocytes [1]) | total granularity versus concentration (hepatocytes [1]) | IC50 (hepatocytes [2]) [µM]
1 | C[C@H](CCC(=O)NCCS(=O)(=O)O)[C@H]1CC[C@H]2[C@@H]3CC[C@@H]4C[C@H](O)CC[C@]4(C)[C@H]3CC[C@]12C [Taurolithocholate, taurolithocholate] | decrease | – | – | – | – | –
2 | CN(C)CCCN1c2ccccc2Sc2ccc(Cl)cc21 [chlorpromazine] | – | induced phospholipidosis | increases | increase | spikes | 25

Reference: patent publication US20070202487A1, “Assay for phospholipidosis” (Cytokinetics, Inc., A Delaware Corporation, priority 2006, published 2007)
